# In patent US20170355705A1 (GlaxoSmithKline Intellectual Property (No.2) Limited, priority 2014, published 2017):
# Molecular target: T1, SIRT1 (Homo sapiens, UniProt Q96EB6)
# T1 sequence (Q96EB6 1-747): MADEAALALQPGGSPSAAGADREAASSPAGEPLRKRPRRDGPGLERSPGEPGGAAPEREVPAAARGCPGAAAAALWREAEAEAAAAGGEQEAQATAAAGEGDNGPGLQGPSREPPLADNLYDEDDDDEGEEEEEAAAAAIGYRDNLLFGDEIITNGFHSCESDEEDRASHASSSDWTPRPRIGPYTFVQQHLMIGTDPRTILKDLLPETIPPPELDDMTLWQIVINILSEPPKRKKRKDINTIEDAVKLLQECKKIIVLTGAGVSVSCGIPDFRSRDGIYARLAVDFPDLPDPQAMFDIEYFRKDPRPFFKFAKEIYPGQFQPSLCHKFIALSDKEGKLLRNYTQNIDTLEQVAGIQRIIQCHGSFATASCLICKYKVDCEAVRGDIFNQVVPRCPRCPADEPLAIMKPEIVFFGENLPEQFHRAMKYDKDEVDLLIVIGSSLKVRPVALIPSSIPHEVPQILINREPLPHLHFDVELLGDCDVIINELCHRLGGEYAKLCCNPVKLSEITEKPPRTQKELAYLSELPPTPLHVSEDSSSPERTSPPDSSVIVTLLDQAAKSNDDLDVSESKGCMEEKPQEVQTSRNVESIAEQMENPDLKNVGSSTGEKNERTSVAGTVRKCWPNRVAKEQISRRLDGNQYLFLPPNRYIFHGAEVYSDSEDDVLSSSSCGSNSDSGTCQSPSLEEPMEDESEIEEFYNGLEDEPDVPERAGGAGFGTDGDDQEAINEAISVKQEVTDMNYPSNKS
# Assay: Trp mass spectrometry assay of SIRT1 activity (EC1.5, percent maximum activation)
# Type: biochemical
# Conditions: Trp mass spectrometry assay; for TRP Activity (EC1.5): EC1.5 = concentration giving 150% activation of SIRT1; for TRP MAX RESP (percent maximum fold activation): percent maximum activation of SIRT1
# In short: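 Activation values derive from mass-spectrometric measurement of NAD-dependent deacetylation product after a 25 min reaction of bacterially expressed His-tagged SIRT1 with a fluorophore-labelled Trp peptide.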
SMILES,TRP Activity (EC1.5),TRP MAX RESP (percent maximum fold activation)
"Cc1cc(-c2nc3c(cc2Cl)N2CC[C@@H](C2)N3C(=O)Nc2cc(OC[C@H](O)CO)ncn2)ccn1 [Example 95, (4S)-8-chloro-N-(6-((R)-2,3-dihydroxypropoxy)pyrimidin-4-yl)-7-(2-methylpyridin-4-yl)-3,4-dihydro-1,4-methanopyrido[2,3-b][1,4]diazepine-5(2H)-carboxamide]",C (EC1.5>25 μM),B (Fold Activation <150%)
"Cc1cc(-c2nc3c(cc2Cl)N2CC[C@@H](C2)N3C(=O)Nc2ccnc(OC[C@H](O)CO)n2)ccn1 [Example 96, (4S)-8-chloro-N-(2-((R)-2,3-dihydroxypropoxy)pyrimidin-4-yl)-7-(2-methylpyridin-4-yl)-3,4-dihydro-1,4-methanopyrido[2,3-b][1,4]diazepine-5(2H)-carboxamide]",C (EC1.5>25 μM),B (Fold Activation <150%)
"Cc1cc(-c2nc3c(cc2Cl)N2CC[C@@H](C2)N3C(=O)Nc2cncc(OC[C@H](O)CO)n2)ccn1 [Example 97, (4S)-8-chloro-N-(6-((R)-2,3-dihydroxypropoxy)pyrazin-2-yl)-7-(2-methylpyridin-4-yl)-3,4-dihydro-1,4-methanopyrido[2,3-b][1,4]diazepine-5(2H)-carboxamide]",C (EC1.5>25 μM),B (Fold Activation <150%)
"Cc1cc(-c2nc3c(cc2Cl)N2CC[C@@H](C2)N3C(=O)Nc2cncc(OC[C@@H](O)CO)n2)ccn1 [Example 98, (4S)-8-chloro-N-(6-((S)-2,3-dihydroxypropoxy)pyrazin-2-yl)-7-(2-methylpyridin-4-yl)-3,4-dihydro-1,4-methanopyrido[2,3-b][1,4]diazepine-5(2H)-carboxamide]",C (EC1.5>25 μM),B (Fold Activation <150%)
"Cc1cc2c(nc1-c1cccc(C(F)(F)F)c1)N(C(=O)Nc1ccnc(OC[C@@H](O)CO)c1)[C@H]1CCN2C1 [Example 101, (4S)-N-(2-((S)-2,3-dihydroxypropoxy)pyridin-4-yl)-8-methyl-7-(3-(trifluoromethyl)phenyl)-3,4-dihydro-1,4-methanopyrido[2,3-b][1,4]diazepine-5(2H)-carboxamide]",A (EC1.5<1 μM),A (Fold activation ≧150%)
"COc1ncc(C(F)(F)F)cc1-c1nc2c(cc1Cl)N1CC[C@@H](C1)N2C(=O)Nc1ccnc(OC[C@@H](O)CO)c1 [Example 103, (4S)-8-chloro-N-(2-((S)-2,3-dihydroxypropoxy)pyridin-4-yl)-7-(2-methoxy-5-(trifluoromethyl)pyridin-3-yl)-3,4-dihydro-1,4-methanopyrido[2,3-b][1,4]diazepine-5(2H)-carboxamide]",B (EC1.5 1-25 μM),A (Fold activation ≧150%)
"N#Cc1cc2c(nc1-c1cccc(C(F)(F)F)c1)N(C(=O)Nc1ccnc(OC[C@@H](O)CO)c1)[C@H]1CCN2C1 [Example 104, (4S)-8-cyano-N-(2-((S)-2,3-dihydroxypropoxy)pyridin-4-yl)-7-(3-(trifluoromethyl)phenyl)-3,4-dihydro-1,4-methanopyrido[2,3-b][1,4]diazepine-5(2H)-carboxamide]",A (EC1.5<1 μM),A (Fold activation ≧150%)
"Cc1cc(-c2nc3c(cc2Cl)N2CC[C@@H](C2)N3C(=O)Nc2cncc(OC[C@@H](O)CO)c2)ccn1 [Example 110, (4S)-8-chloro-N-(5-((S)-2,3-dihydroxypropoxy)pyridin-3-yl)-7-(2-methylpyridin-4-yl)-3,4-dihydro-1,4-methanopyrido[2,3-b][1,4]diazepine-5(2H)-carboxamide]",B (EC1.5 1-25 μM),A (Fold activation ≧150%)
"O=C(Nc1ccccn1)N1c2nc(N3CCC[C@H]3C(F)(F)F)ccc2N2CC[C@H]1C2 [Example 120, (4S)-N-(pyridin-2-yl)-7-((S)-2-(trifluoromethyl)pyrrolidin-1-yl)-3,4-dihydro-1,4-methanopyrido[2,3-b][1,4]diazepine-5(2H)-carboxamide]",B (EC1.5 1-25 μM),A (Fold activation ≧150%)
"Cc1cc(-c2ccc3c(n2)N(C(=O)Nc2ccc4c(c2)OCCO4)[C@H]2CCN3C2)ccn1 [Example 121, (4S)-N-(2,3-dihydrobenzo[b][1,4]dioxin-6-yl)-7-(2-methylpyridin-4-yl)-3,4-dihydro-1,4-methanopyrido[2,3-b][1,4]diazepine-5(2H)-carboxamide]",B (EC1.5 1-25 μM),A (Fold activation ≧150%)

# More lines, now with the values ahead:
TRP Activity (EC1.5),TRP MAX RESP (percent maximum fold activation),SMILES
B (EC1.5 1-25 μM),A (Fold activation ≧150%),"COc1ncc(-c2nc3c(cc2Cl)N2CC[C@@H](C2)N3C(=O)Nc2ccnc(OC[C@@H](O)CO)c2)cc1C(F)(F)F [Example 99, (4S)-8-chloro-N-(2-((S)-2,3-dihydroxypropoxy)pyridin-4-yl)-7-(6-methoxy-5-(trifluoromethyl)pyridin-3-yl)-3,4-dihydro-1,4-methanopyrido[2,3-b][1,4]diazepine-5(2H)-carboxamide]"
B (EC1.5 1-25 μM),A (Fold activation ≧150%),"O=C(Nc1ccnc(OC[C@H](O)CO)c1)N1c2nc(-c3cnn(C4CC4)c3)c(Cl)cc2N2CC[C@H]1C2 [Example 100, (4S)-8-chloro-7-(1-cyclopropyl-1H-pyrazol-4-yl)-N-(2-((R)-2,3-dihydroxypropoxy)pyridin-4-yl)-3,4-dihydro-1,4-methanopyrido[2,3-b][1,4]diazepine-5(2H)-carboxamide]"
B (EC1.5 1-25 μM),A (Fold activation ≧150%),"O=C(Nc1ccnc(OC[C@@H](O)CO)c1)N1c2nc(-c3cnn(C4CC4)c3)c(Cl)cc2N2CC[C@H]1C2 [Example 102, (4S)-8-chloro-7-(1-cyclopropyl-1H-pyrazol-4-yl)-N-(2-((S)-2,3-dihydroxypropoxy)pyridin-4-yl)-3,4-dihydro-1,4-methanopyrido[2,3-b][1,4]diazepine-5(2H)-carboxamide]"
B (EC1.5 1-25 μM),A (Fold activation ≧150%),"Cn1cc(-c2nc3c(cc2Cl)N2CC[C@@H](C2)N3C(=O)Nc2ccnc(OC[C@@H](O)CO)c2)cn1 [Example 105, (4S)-8-chloro-N-(2-((S)-2,3-dihydroxypropoxy)pyridin-4-yl)-7-(1-methyl-1H-pyrazol-4-yl)-3,4-dihydro-1,4-methanopyrido[2,3-b][1,4]diazepine-5(2H)-carboxamide]"
B (EC1.5 1-25 μM),A (Fold activation ≧150%),"Cn1cc(-c2nc3c(cc2Cl)N2CC[C@@H](C2)N3C(=O)Nc2ccnc(OC[C@H](O)CO)c2)cn1 [Example 106, (4S)-8-chloro-N-(2-((R)-2,3-dihydroxypropoxy)pyridin-4-yl)-7-(1-methyl-1H-pyrazol-4-yl)-3,4-dihydro-1,4-methanopyrido[2,3-b][1,4]diazepine-5(2H)-carboxamide]"
A (EC1.5<1 μM),A (Fold activation ≧150%),"O=C(Nc1ccnc(OC[C@@H](O)CO)c1)N1c2nc(-c3cccc(C(F)F)c3)c(Cl)cc2N2CC[C@H]1C2 [Example 107, (4S)-8-chloro-7-(3-(difluoromethyl)phenyl)-N-(2-((S)-2,3-dihydroxypropoxy)pyridin-4-yl)-3,4-dihydro-1,4-methanopyrido[2,3-b][1,4]diazepine-5(2H)-carboxamide]"
B (EC1.5 1-25 μM),A (Fold activation ≧150%),"O=C(Nc1ccnc(OC[C@@H](O)CO)c1)N1c2nc(-c3ccnc(C(F)(F)F)c3)c(Cl)cc2N2CC[C@H]1C2 [Example 108, (4S)-8-chloro-N-(2-((S)-2,3-dihydroxypropoxy)pyridin-4-yl)-7-(2-(trifluoromethyl)pyridin-4-yl)-3,4-dihydro-1,4-methanopyrido[2,3-b][1,4]diazepine-5(2H)-carboxamide]"
B (EC1.5 1-25 μM),A (Fold activation ≧150%),"O=C(Nc1ccnc(OC[C@@H](O)CO)c1)N1c2nc(-c3cncc(C(F)(F)F)c3)c(Cl)cc2N2CC[C@H]1C2 [Example 109, (4S)-8-chloro-N-(2-((S)-2,3-dihydroxypropoxy)pyridin-4-yl)-7-(5-(trifluoromethyl)pyridin-3-yl)-3,4-dihydro-1,4-methanopyrido[2,3-b][1,4]diazepine-5(2H)-carboxamide]"
